From US8318667B2, “Glucagon receptor antagonist compounds, compositions containing such compounds and methods of use” (Merck Sharp & Dohme Corp., priority 2009, dated 2012)

Target: T1, human glucagon receptor (Homo sapiens, UniProt P47871)
T1 construct: expressed in transfected cells; cell membranes used
Assay: Glucagon Receptor Binding Assay (125I-glucagon, SPA, CHO cell membranes)
Conditions: for IC50: inhibition of 125I-glucagon binding to membranes of CHO cells expressing cloned human glucagon receptor, value for the most active stereoisomer prepared; for relative potency as glucagon receptor antagonist among the stereoisomers prepared: comparison of stereoisomers of the same example, assay not stated
Experimental: A stable CHO (Chinese hamster ovary) cell line expressing cloned human glucagon receptor was maintained as described (Chicchi, et. al. J Biol Chem 272, 7765-9(1997); Cascieri, et. al. J Biol Chem 274, 8694-7(1999)). To determine antagonistic binding affinity of compounds, 0.001-0.003 mg of cell membranes from these cells were pre-incubated with 0.100 mg WGA-coated PVT SPA beads (Amersham) for 20 minutes at room temperature in […] of a buffer containing 50 mM Tris-HCl (pH 7.5), 5 mM MgCl2, 2 mM EDTA, 0.1% BSA and 3% glycerol in Costar 384 well plates with clear bottoms (#3706). Next, 25 μL of ^125I-Glucagon (New England Nuclear, MA) (1×10^−14 mol per well) and either 1 μL solutions of test compounds or 0.001 mM unlabeled glucagon or DMSO were added and mixed. After 4-12 hours incubation at room temperature, the radioactivity bound to the cell membranes was determined in a radioactive emission detection counter (Wallac-Microbeta). Data were analyzed using the Data Analyzer software program of Merck & Co., Inc. The IC50 values were calculated using non-linear regression analysis assuming single-site competition.

T1 sequence (P47871 26-477): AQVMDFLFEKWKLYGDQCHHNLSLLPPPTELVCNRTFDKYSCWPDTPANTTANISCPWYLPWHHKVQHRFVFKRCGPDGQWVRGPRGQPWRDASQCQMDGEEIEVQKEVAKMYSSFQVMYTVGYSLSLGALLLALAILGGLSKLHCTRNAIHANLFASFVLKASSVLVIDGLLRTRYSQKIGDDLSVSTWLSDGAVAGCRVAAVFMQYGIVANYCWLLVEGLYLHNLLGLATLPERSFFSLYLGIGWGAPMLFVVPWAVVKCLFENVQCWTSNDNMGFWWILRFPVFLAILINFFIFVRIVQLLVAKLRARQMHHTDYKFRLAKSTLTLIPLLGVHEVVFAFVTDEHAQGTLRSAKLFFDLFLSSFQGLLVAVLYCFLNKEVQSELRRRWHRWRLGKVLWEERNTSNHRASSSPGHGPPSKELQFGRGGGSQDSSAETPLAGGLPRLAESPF

Row | IC50 [nM] | Compound | relative potency as glucagon receptor antagonist among the stereoisomers prepared
1 | 1.7 | CCCC(c1ccc(C(=O)NCCC(=O)O)cc1)C(c1ccc(Cl)cc1)c1n[nH]c2c(F)cc(-c3cccc(F)c3)cc12 (racemic) [Example 24] | –
2 | 0.6 | CCCC(c1ccc(C(=O)NCCC(=O)O)cc1)C(c1ccc(Cl)cc1)c1n[nH]c2c(C)cc(Cl)cc12 (single isomer, unassigned) [Example 1] | most potent glucagon antagonist of the four stereoisomeric compounds
3 | 0.7 | CCCC(c1ccc(C(=O)NCCC(=O)O)cc1)C(c1ccc(Cl)cc1)c1nn(C)c2c(Cl)cc(C(F)(F)F)cc12 (single isomer, unassigned) [Example 2, N-(4-{1-[[7-Chloro-1-Methyl-5-(Trifluoromethyl)-1H-Indazol-3-Yl](4-Chlorophenyl)Methyl]Butyl}Benzoyl)-β-Alanine] | –
4 | 37 | CCCC(c1ccc(C(=O)NCCC(=O)O)cc1)C(c1ccc(Cl)cc1)c1c2cc(C(F)(F)F)cc(Cl)c2nn1-c1ccccc1 (single isomer, unassigned) [Example 3, N-[4-(1-{(4-Chlorophenyl)[7-Chloro-2-Phenyl-5-(Trifluoromethyl)-2H-Indazol-3-Yl]Methyl}Butyl)Benzoyl]-β-Alanine] | –
5 | 2.6 | CCCC(c1ccc(C(=O)NCCC(=O)O)cc1)C(c1ccc(Cl)cc1)c1c2cc(C(F)(F)F)cc(Cl)c2nn1C (single isomer, unassigned) [Example 4, N-[4-(1-{(4-Chlorophenyl)[7-Chloro-2-Methyl-5-(Trifluoromethyl)-2H-Indazol-3-Yl]Methyl}Butyl)Benzoyl]-β-Alanine] | most potent glucagon receptor antagonist of the four stereoisomeric compounds
6 | 0.8 | CCCC(c1ccc(C(=O)NCCC(=O)O)cc1)C(c1ccc(Cl)cc1)c1n[nH]c2ccc(C(F)(F)F)cc12 (single isomer, unassigned) [Example 5, N-[4-(1-{(4-CHLOROPHENYL)[5-(TRIFLUOROMETHYL)-1H- INDAZOL-3-YL]METHYL}BUTYL)BENZOYL]-β-ALANINE] | –
7 | 0.2 | CCCC(c1ccc(C(=O)NCCC(=O)O)cc1)C(c1ccc(Cl)cc1)c1n[nH]c2c(Cl)cc(C(F)(F)F)cc12 (single isomer, unassigned) [Example 6, N-[4-(1-{(4-CHLOROPHENYL)[7-CHLORO-5-(TRIFLUOROMETHYL)-1H-INDAZOL- 3-YL]METHYL}BUTYL)BENZOYL]-β-ALANINE] | –
8 | 0.4 | CCCC(c1ccc(C(=O)NCCC(=O)O)cc1)C(c1ccc(Cl)cc1)c1n[nH]c2c(Cl)cc(Cl)cc12 (single isomer, unassigned) [Example 8, N-[4-(1-{(4-CHLOROPHENYL)[5,7-DICHLORO-1H-INDAZOL-3- YL]METHYL}BUTYL)BENZOYL]-β-ALANINE] | –
9 | 1 | CCCC(c1ccc(C(=O)NCCC(=O)O)cc1)C(c1ccc(Cl)cc1)c1nn(C)c2ccc(C(F)(F)F)cc12 (single isomer, unassigned) [Example 9, N-[4-(1-{(4-CHLOROPHENYL)[1-METHYL-5-(TRIFLUOROMETHYL)-1H- INDAZOL-3-YL]METHYL}BUTYL)BENZOYL]-β-ALANINE] | –
10 | 4 | CCCC(c1ccc(C(=O)NCCC(=O)O)cc1)C(c1ccc(Cl)cc1)c1nn(C)c2c(F)cc(F)cc12 (single isomer, unassigned) [Example 10, N-[4-(1-{(4-CHLOROPHENYL)[1-METHYL-5,7-DIFLUORO-1H- INDAZOL-3-YL]METHYL}BUTYL)BENZOYL]-β-ALANINE] | –
11 | 0.7 | CCCC(c1ccc(C(=O)NCCC(=O)O)cc1)C(c1ccc(Cl)cc1)c1nn(C)c2c(C)cc(Cl)cc12 (single isomer, unassigned) [Example 11, N-[4-(1-{(4-CHLOROPHENYL)[1,7-DIMETHYL-5-CHLORO-1H- INDAZOL-3-YL]METHYL}BUTYL)BENZOYL]-β-ALANINE] | –
12 | 0.9 | CCCC(c1ccc(C(=O)NCCC(=O)O)cc1)C(c1ccc(Cl)cc1)c1nn(C)c2c(Cl)cc(Cl)cc12 (single isomer, unassigned) [Example 12, N-[4-(1-{(4-CHLOROPHENYL)[1-METHYL-5,7-DICHLORO-1H-INDAZOL-3- YL]METHYL}BUTYL)BENZOYL]-β-ALANINE] | –
13 | 3.3 | CCCC(c1ccc(C(=O)NCCC(=O)O)cc1)C(c1ccc(Cl)cc1)c1c2cc(C(F)(F)F)ccc2nn1C (single isomer, unassigned) [Example 13, N-[4-(1-{(4-CHLOROPHENYL)[2-METHYL-5- (TRIFLUOROMETHYL)-2H-INDAZOL-3- YL]METHYL}BUTYL)BENZOYL]-β-ALANINE] | –
14 | 3.9 | CCCC(c1ccc(C(=O)NCCC(=O)O)cc1)C(c1ccc(Cl)cc1)c1c2cc(C(F)(F)F)cc(Cl)c2nn1CC(F)(F)F (single isomer, unassigned) [Example 17, N-[4-(1-{(4-CHLOROPHENYL)[7-CHLORO-2-(2,2,2- TRIFLUOROETHYL)-5-(TRIFLUOROMETHYL)-2H-INDAZOL-3- YL]METHYL}BUTYL)BENZOYL]-β-ALANINE] | –
15 | 2 | CCCC(c1ccc(C(=O)NCCC(=O)O)cc1)C(c1ccc(Cl)cc1)c1c2cc(Cl)cc(Cl)c2nn1C (single isomer, unassigned) [Example 19, N-[4-(1-{(4-CHLOROPHENYL)[2-METHYL-5,7-DICHLORO-2H-INDAZOL-3- YL]METHYL}BUTYL)BENZOYL]-β-ALANINE] | –
16 | 2.6 | CCCC(c1ccc(C(=O)NCCC(=O)O)cc1)C(c1ccc(Cl)cc1)c1n[nH]c2c(F)cc(-c3ccc(C)cc3)cc12 (single isomer, unassigned) [Example 21, N-[4-(1-{(4-Chlorophenyl)[7-Fluoro-5-(4-Methylphenyl)-1H-Indazol-3-Yl]Methyl}Butyl)Benzoyl]-β-Alanine] | the more potent glucagon receptor antagonist
17 | 4.3 | CCCC(c1ccc(C(=O)NCCC(=O)O)cc1)C(c1ccc(Cl)cc1)c1n[nH]c2c(F)cc(C#N)cc12 (single isomer, unassigned) [Example 36, N-(4-{1-[(4-Chlorophenyl)(5-Cyano-7-Fluoro-1H-Indazol-3-Yl)Methyl]Butyl}Benzoyl)-β-Alanine] | the more potent glucagon receptor antagonist
18 | 0.8 | CCC[C@H](c1ccc(C(=O)NCCC(=O)O)cc1)[C@H](c1ccc(Cl)cc1)c1n[nH]c2c(F)cc(C)cc12 (single isomer, unassigned) [Example 37] | –
